Results: paper PMC9929232, “On-demand male contraception via acute inhibition of soluble adenylyl cyclase” (Nature Communications, 2023)
Where “and” joins values, the source holds several entries; their conditions need not be identical. Equal entries are not always repeated.

Experiments:
[1] = tested on: epididymal mouse sperm; assay: Ex vivo motility (CASA) of epididymal sperm from inhibitor-treated male mice; assay type: in vivo; parameters: hyperactivated motility (%): concentration or dose not given beside the values
Description: Sperm movements of 10 fields of at least 200 sperm were examined using computer-assisted sperm analysis (CASA) via Hamilton–Thorne digital image analyzer (IVOS II, Hamilton Thorne Research, Beverly, MA) with the following parameters: 30 frames, frame rate: 60 Hz, cell size: 30–170 μm^2. Ejaculated uterine mouse sperm were recorded without additional dilution. Sperm were considered motile when presenting STR ≥80% and VAP ≥50 μm/s and hyperactivated when presenting VCL ≥270 μm/s, LIN < 50%, and ALH ≥7 μm. Track´s color code: motile (green), progressive (turquoise), hyperactivated (purple), slow (pink), static (red), not counted due to late entry (yellow).

[2] = tested on: mouse sperm; assay: cAMP generation in mouse sperm in vitro, incl. wash-out by dilution; settings: 12 minutes
Description: For capacitation, sperm were incubated for 90 min in TYH containing 3 mg/ml BSA and 25 mM NaHCO3 in a 37 °C incubator. To control for the consequences of dilution during isolation of epididymal mouse sperm for ex vivo assays, we assessed the ability of bicarbonate to induce a prototypical pattern of tyrosine phosphorylation (pY) which is a widely used molecular hallmark of capacitation[53]. Bicarbonate-induced pY is known to be sAC dependent in vitro[20],[22],[35]. For experiments studying sperm from injected mice, ‘swim out’ was performed in 200 μl TYH, which corresponded to a 1:10 dilution from epididymis (20 μg cauda in 200 μl buffer). Capacitation-induced changes were assessed by adding 50 µl of ‘swim out’ sperm to increasing volumes of capacitating TYH buffer.
cAMP generation was measured in mouse and human sperm. […] For human sperm, aliquots of 2 × 10^6 cells were incubated for 30 min in the presence or absence of sAC inhibitor in non-capacitating or capacitating HTF buffer. In both cases, 0.1% DMSO was used as vehicle control.
After 5 min, 150 µl of sperm/inhibitor mix was diluted into 1.35 ml non-capacitating or capacitating media with no inhibitor. […] Sperm lysates were centrifuged at 2000 × g for 3 min and the cAMP in the supernatant was acetylated and quantified using the Direct cAMP ELISA kit (Enzo).

[3] = tested on: epididymal mouse sperm; assay: Tyrosine phosphorylation (pY) Western blot of sperm from injected mice; settings: 50 mg/kg i.p., 1 hour
Description: (§1) For capacitation, sperm were incubated for 90 min in TYH containing 3 mg/ml BSA and 25 mM NaHCO3 in a 37 °C incubator. To control for the consequences of dilution during isolation of epididymal mouse sperm for ex vivo assays, we assessed the ability of bicarbonate to induce a prototypical pattern of tyrosine phosphorylation (pY) which is a widely used molecular hallmark of capacitation[53]. […] For experiments studying sperm from injected mice, ‘swim out’ was performed in 200 μl TYH, which corresponded to a 1:10 dilution from epididymis (20 μg cauda in 200 μl buffer). Capacitation-induced changes were assessed by adding 50 µl of ‘swim out’ sperm to increasing volumes of capacitating TYH buffer.
Mouse sperm from vehicle- or inhibitor-injected mice were isolated 1 hour post injection from male mice injected (i.p.) with 150 µl of solution containing sAC inhibitor or vehicle. ‘Swim out’ sperm were diluted 1:1 to 1:100 in capacitating TYH media. As control, sperm from vehicle-injected mice were diluted 1:100 in non-capacitating and capacitating TYH buffer. The samples were incubated for 90 min, washed with 1 ml PBS and sedimented by centrifugation at 2000 × g for 3 min. The sedimented sperm were resuspended in 15 μl 2× Laemmli sample buffer, heated for 5 min at 95 °C, supplemented with 8 µl β-mercaptoethanol and heated again for 5 min at 95 °C. For Western blot analysis, proteins were transferred onto PVDF membranes (Thermo Scientific), probed with anti-phosphotyrosine (1:1000, clone 4G10, Merck Millipore) and anti-mouse IgG (1:10,000, Cell Signaling Technology) antibodies, and analyzed using a chemiluminescence detection system. Image lab (Bio-Rad) was used for densitometric analysis of western blots.

[4] = tested on: epididymal mouse sperm; assay: Ex vivo cAMP generation in epididymal sperm from inhibitor-treated male mice (oral or i.p.)
Description: as §1
Intracellular cAMP levels were quantified using the Direct cAMP ELISA kit (Enzo) as above.

[5] = sheet Fig. 2a replicates, 5 μM TDI-10229 or 10 nM TDI-11861 present
[6] = sheet Fig. 2b replicates, 5 min preincubation in 5 μM TDI-10229 or 10 nM TDI-11861, diluted 1:100 into inhibitor-free media

Nc1nc(Cl)cc(-c2nn(C(F)F)cc2Cc2ccccc2OCCN2CCOC[C@@H]2CO)n1 [TDI-11861]
earliest time of motility inhibition post i.p.-injection ([1]; 50 mg/kg i.p.): 15 min | recovery of sperm motility ([1]; 50 mg/kg i.p., 24 hours post-injection): most sperm from TDI-11861-injected mice had recovered motility | motility of epididymal sperm diluted ex vivo ([1]; 50 mg/kg oral): essentially immotile | motility (%) ([1]; Fig. 3b replicates, 50 mg/kg oral gavage, 1 hour, diluted 1:100 in inhibitor-free non-capacitating media, CASA, 50 mg/kg): 2.8% and 0.5% and 0.3% and 0.7% and 1.7% and 1.9% and 3.3% and 1.6% and 3.6% and 3.8% and 1.1% | motility (%), + cAMP ([1]; Fig. 3b replicates, 50 mg/kg oral gavage, 1 hour, in presence of 5 mM db-cAMP/500 μM IBMX, 50 mg/kg): 10.8% and 22.6% and 32.3% and 13.1% and 19.4% and 14.6% and 14% and 11.2% | progressive motility (%) ([1]; Fig. 4b, epididymal sperm): 0.9% and 1.3% and 2.1% and 0.4% and 1.5% and 0.8% and 0.3% | hyperactivated motility (%) ([1]; Fig. 4c, epididymal sperm): 0.8% and 0.4% and 1.6% and 0.2% and 0.1% and 0.6% and 0.3% | motility (%) ([1]; Fig. 5, time 0.25 h): 0.4% and 0.6% and 0.8% and 0.3% and 0.7% and 1.3% and 1% | motility (%) ([1]; Fig. 5, time 0.5 h): 3.4% and 0.5% and 1.4% and 4.6% and 1.7% and 0.9% | motility (%) ([1]; Fig. 5, time 2 h): 1.1% and 1.7% and 1.2% and 0.7% and 2.3% and 2.7% | motility (%) ([1]; Fig. 5, time 2.5 h): 0.8% and 6.3% and 0.7% and 1.3% and 0.9% and 0.4% | motility (%) ([1]; Fig. 5, time 3 h): 1.2% and 0.4% and 6.5% and 6.2% and 3.7% | motility (%) ([1]; Fig. 5, time 24 h): 22.8% and 19.1% and 22% and 33.1% and 20.5% and 20.6% | motility (%) ([1]; Fig. 3d, + cAMP, individual replicates): 17.3% and 12.5% and 13.3% and 33% and 16.6% and 14.6% | motility (%) ([1]; Fig. 3d, individual replicates): 3% and 0.6% and 2% (2×) and 1.9% and 3.8% and 2.2% and 2.3% and 1.4% and 0.9% (2×) and 2.5% and 0.4% and 0.2% and 1.1% and 2.8% | cAMP, capacitation media [2, 5]: 0.4536 pmol/10^6 sperm and 0.2982 pmol/10^6 sperm and 0.3279 pmol/10^6 sperm and 0.1875 pmol/10^6 sperm and 0.4476 pmol/10^6 sperm and 0.4575 pmol/10^6 sperm and 0.7152 pmol/10^6 sperm and 0.6672 pmol/10^6 sperm and 0.4645 pmol/10^6 sperm and 0.4351 pmol/10^6 sperm and 0.0606 pmol/10^6 sperm and 0.2667 pmol/10^6 sperm | cAMP, non-capacitation media [2, 5]: 1 pmol/10^6 sperm and 0.8029 pmol/10^6 sperm and 0.2251 pmol/10^6 sperm and 0.2037 pmol/10^6 sperm and 0.6722 pmol/10^6 sperm and 0.7415 pmol/10^6 sperm and 0.6566 pmol/10^6 sperm and 0.7427 pmol/10^6 sperm and 0.4253 pmol/10^6 sperm and 0.8706 pmol/10^6 sperm and 0.1092 pmol/10^6 sperm and 0.7462 pmol/10^6 sperm | cAMP, capacitation media [2, 6]: 0.677 pmol/10^6 sperm and 1.0488 pmol/10^6 sperm and 0.28 pmol/10^6 sperm and 0.63 pmol/10^6 sperm and 0.972 pmol/10^6 sperm and 0.1159 pmol/10^6 sperm and 0.3305 pmol/10^6 sperm and 0.9745 pmol/10^6 sperm and 1.058 pmol/10^6 sperm | cAMP, non-capacitation media [2, 6]: 0.555 pmol/10^6 sperm and 1.0234 pmol/10^6 sperm (2×) and 0.88 pmol/10^6 sperm and 0.438 pmol/10^6 sperm and 0.1502 pmol/10^6 sperm and 1.06 pmol/10^6 sperm and 0.8915 pmol/10^6 sperm and 1.0835 pmol/10^6 sperm | capacitation-induced pY pattern ([3]; diluted 100 fold): remained blocked | capacitation-induced pY pattern ([3]; swim out sperm mixed with equal volume capacitation media): blocked | bicarbonate-induced cAMP response, sperm directly isolated ([4]; 50 mg/kg i.p.): prevented bicarbonate-induced increase in cAMP | inhibition of bicarbonate-induced cAMP elevation and motility after ex vivo dilution ([4]; 50 mg/kg i.p.): persisted following ex vivo dilution | bicarbonate-induced cAMP response, sperm measured directly ([4]; 50 mg/kg oral, 1 hour, cauda sperm): no bicarbonate-induced increase in cAMP | normalized cAMP, diluted ([4]; Fig. 3a replicates, 50 mg/kg oral gavage, 100-fold dilution into inhibitor-free media, capacitating relative to non-capacitated, 50 mg/kg): 1.404 and 1.468 and 0.846 and 0.4392 and 0.6198 and 0.8825 and 1.178 and 0.8649 and 1.043 | normalized cAMP, non-diluted ([4]; Fig. 3a replicates, 50 mg/kg oral gavage, capacitating relative to non-capacitated sperm of same mouse, 12 minutes, 50 mg/kg): 1.2234 and 1.098 and 0.3601 and 0.9436 and 0.9025 and 0.6956 and 0.2677 and 0.09176 and 0.3627 | normalize cAMP, diluted ([4]; Fig. 3c replicates, 50 mg/kg i.p., 100-fold dilution into inhibitor-free media, capacitating relative to non-capacitated, 50 mg/kg): 0.9454 and 0.4612 and 0.4886 and 0.7809 and 1.256 and 0.4688 and 0.8437 and 0.776 and 0.4914 and 0.7724 and 0.3623 | normalize cAMP, non-diluted ([4]; Fig. 3c replicates, 50 mg/kg i.p., capacitating relative to non-capacitated sperm of same mouse, 12 minutes, 50 mg/kg): 0.1221 and 0.9832 and 1.008 and 0.7764 and 0.7982 and 0.2443 and 0.1415 and 0.1173 and 0.5249 and 1.087 and 1.4
